In patent US10695387B2, “Extracts of microalgae and plants for regulating sebum production” (Cutech SRL, priority 2014, dated 2020):

Tested on: human sebaceous glands (hSGs)
Assay: Ex-vivo culture of human sebaceous glands (hSGs), quantification of sebum content (lipids/proteins) vs control
Assay type: cell-based
Details: positive control
Description: All the reported examples are intended to show the modulation of sebum production exerted by the experimental preparations on human hSGs microdissected and cultivated up to day 6. At the end of the culture time, the sebum is extracted and quantified from each experimental group of hSGs and then normalized by the proteins extracted from the residual hSG material (mg lipids/mg proteins). As a result, the biological activity of the tested compounds is inferred by comparing the ratio lipids/proteins of the treated glands with that of the control group.
Using micro-scissors and tweezers, hSGs were isolated from the pilosebaceous units of a scalp skin sample. They were seeded in 24-well plates at the density of 8 hSGs/well and then cultivated in 500 μl of modified William E medium. After 24 hours of culture the viability of the hSGs was assessed by means of resazurine assay. Briefly, each hSGs group was transferred onto a microplate well with 200 μl of 10% resazurin culture medium for 2 hours. During this period the resazurin, a non-fluorescent blue dye, is reduced by living cells to the pink coloured and highly red fluorescent resorufin. At the end of the incubation, the medium was withdrawn and analyzed for the resazurin fluorescence in a plate reader ([…]). The fluorescence signal positively correlates with the hSGs viability. Since the resazurin test is not toxic, the hSGs were then seeded in a 24-well plate and cultivated with the experimental culture media in order to start the treatments. The control received William E medium appropriately modified, while the samples submitted to experimental treatments received the same medium supplemented with experimental extracts. The culture medium was renewed every other day. After six days of organ culture, the viability of the hSGs was again assessed via resazurine assay and then, having attested their good viability, each group of hGSs was collected and analyzed for quantifying the sebum content.
Each hSG group was homogenized in 100 μl of isopropyl alcohol;
the sample was centrifuged at 14,000 G for 5 minutes and then the supernatant (containing the extracted sebum) was collected;
the sebum extract was analyzed in triplicate with a Direct Detect IR Spectrometer (Millipore), which provided the total lipid concentration of the supernatant (mg/ml);
the total lipids of the hSGs was quantified multiplying the supernatant lipid concentration (indention 3) by the volume of isopropyl alcohol adopted for the lipid extraction (indention 1);
the pellet remaining from indention 2 was dried by means of a vacuum dry evaporator and then again homogenized in 50 μl of proteolytic buffer (20 mM Tris/HCl pH 7.5, 150 mM NaCl, 2 mM EDTA, 0.5% Triton X-100, 2 mM DTT, 1% protease inhibitor cocktail);
after an appropriate incubation time, this extractive mixture was centrifuged at 14,000 G for 10 minutes and the supernatant was collected and analyzed in triplicate with a Direct Detect IR Spectrometer (Millipore);
the obtained total protein concentration was multiplied by the extractive volume (indention 5) in order to quantify the total proteins of the hSGs;
the total lipid amount (indention 4), i.e. the amount of sebum, was divided by the total proteins (indention 7) in order to obtain the normalized amount of lipids per mg of proteins (mg of lipids/mg of proteins).
The amounts of normalized lipids obtained from the treated groups, i.e. the sebum produced by each group of hSGs, were expressed in percentages with respect to the value obtained in the control group, in order to point out the regulatory effect performed by the experimental treatment.

COc1cc(CNC(=O)CCCC/C=C/C(C)C)ccc1O [Capsaicin]
Sebum content in hSGs, Average, % ratio of the control group performance (Table 2 experiment, 5 μM): 90.3% | Sebum content in hSGs, Average, % ratio of the control group performance (Table 5 experiment, Amount 0): 68.5% | Sebum content in hSGs, Average, % ratio of the control group performance (Table 6 experiment (different donor), Amount 0): 59.2% | Sebum content in hSGs, Average, % ratio of the control group performance (Table 7 experiment, Amount 0): 97.4% | Sebum content in hSGs, Average, % ratio of the control group performance (Table 8 experiment, Amount 0): 91.9% | Sebum content in hSGs, Average, % ratio of the control group performance (Table 10 experiment, 5 μg/ml): 62.9%
